{"source": "patent EP3294317B1", "about": "“ENHANCED ANTIBIOTIC COMPOSITION” (Universitat Autònoma de Barcelona, priority 2015, dated 2016)", "key": {"[1]": {"tested_on": "Escherichia coli ATCC 9637", "assay": "Colistin broth microdilution MIC with potentiator compounds (Example 1)", "format": "cell-based", "details": "E. coli ATCC 9637; colistin without potentiator"}, "[2]": {"tested_on": "Stenotrophomonas maltophilia ATCC 13637", "assay": "Colistin broth microdilution MIC with potentiator compounds (Example 1)", "format": "cell-based", "details": "S. maltophilia ATCC 13637; colistin without potentiator"}, "[3]": {"tested_on": "Pseudomonas aeruginosa PAO1", "assay": "Colistin broth microdilution MIC with potentiator compounds (Example 1)", "format": "cell-based", "details": "P. aeruginosa PAO1; colistin without potentiator"}, "A. baumannii 6799": {"tested_on": "A. baumannii 6799", "assay": "Colistin broth microdilution MIC with potentiator compounds, resistant clinical isolates (Example 3)", "format": "cell-based, Acinetobacter baumannii", "details": "colistin without potentiator", "method": "(§1) The potentiator effect of the compound of the invention and other compounds disclosed herein was tested using colistin sulfate as antibiotic and in combination with the enhancer compounds in front of resistant clinical isolates.\n(§2) Tests were performed to determine the potentiator effect of the compound of the invention and other compounds disclosed herein with multidrug-resistant S. maltophilia and A. baumannii clinical strains as shown in Table 5: TABLE 5\n(§3) For this experiment the potentiator compound was added to a colistin broth microdilution assay at a final concentration of 0.1mM. MICs were determined as described in the Example 1.\n(§4) Colistin minimal inhibitory concentration (MIC), expressed in µg/mL, and the fold increase in bacterial susceptibility to colistin when combined with the potentiator compound (expressed as MIC in the presence of 1.0% DMSO / MIC in the presence of 0.1 mM of each potentiator compound and 1.0% DMSO) are shown in Table 6: […]"}, "A. baumannii 6963": {"tested_on": "A. baumannii 6963", "assay": "Colistin broth microdilution MIC with potentiator compounds, resistant clinical isolates (Example 3)", "format": "cell-based, Acinetobacter baumannii", "details": "colistin without potentiator", "method": "as §1, §2, §3, §4"}, "[4]": {"tested_on": "Escherichia coli ATCC 25922", "assay": "Colistin broth microdilution MIC with potentiator compounds (Example 1)", "format": "cell-based", "details": "E. coli ATCC 25922; colistin without potentiator"}, "S. maltophilia K279a": {"tested_on": "S. maltophilia K279a", "assay": "Colistin broth microdilution MIC with compound of formula I prepared in methanol or DMSO (Example 6)", "format": "cell-based, Stenotrophomonas maltophilia", "details": "microdilution test with MHB, colistin without potentiator", "method": "(§5) The potentiator effect of the compound of the invention in a new formulation was tested by using colistin sulphate as antibiotic in combination with the enhancer compound of formula I in front of resistant clinical isolates. […]\n(§6) Tests were performed to determine the potentiator effect of the compound of the invention with two colistin resistant S. maltophilia strains as shown in Table 9. S. maltophilia K279a is a reference clinical strain. The origin of clinical strain OC323 together with K279a has been described previously (Huedo et al., Two Different rpf Clusters Distributed among a Population of Stenotrophomonas maltophilia Clinical Strains Display Differential Diffusible Signal Factor Production and Virulence Regulation, J. Bacteriol., 2014, 196, 2431-2442).\n(§7) Selected compound of formula I was first dissolved in 100% of Methanol (HPLC Gradient Grade CHROMASOLV. Sigma, 34885-1L-R) to 10 mM. The compound was fairly soluble in methanol up to 10 mM and required vigorous vortex.\n(§8) […] MICs were determined as described in the Example 1.\n(§9) Strains colistin minimal inhibitory concentration (MIC), expressed in µg/mL, and the fold increase in bacterial susceptibility to colistin when combined with the potentiator compound previously dissolved in methanol ([…]) are shown in Table 9: TABLE 9"}, "S. maltophilia OC323": {"tested_on": "S. maltophilia OC323", "assay": "Colistin broth microdilution MIC with compound of formula I prepared in methanol or DMSO (Example 6)", "format": "cell-based, Stenotrophomonas maltophilia", "details": "microdilution test with MHB, colistin without potentiator", "method": "as §5, §6, §7, §8, §9"}, "[5]": {"tested_on": "Pseudomonas aeruginosa ATCC 27853", "assay": "Colistin broth microdilution MIC with potentiator compounds (Example 1)", "format": "cell-based", "details": "P. aeruginosa ATCC 27853; colistin without potentiator"}, "S. maltophilia 197": {"tested_on": "S. maltophilia 197", "assay": "Colistin broth microdilution MIC with potentiator compounds, resistant clinical isolates (Example 3)", "format": "cell-based, Stenotrophomonas maltophilia", "details": "colistin without potentiator", "method": "as §1, §2, §3, §4"}, "S. maltophilia 53149": {"tested_on": "S. maltophilia 53149", "assay": "Colistin broth microdilution MIC with potentiator compounds, resistant clinical isolates (Example 3)", "format": "cell-based, Stenotrophomonas maltophilia", "details": "colistin without potentiator", "method": "as §1, §2, §3, §4"}, "S. maltophilia D457": {"tested_on": "S. maltophilia D457", "assay": "Colistin broth microdilution MIC with potentiator compounds, resistant clinical isolates (Example 3)", "format": "cell-based, Stenotrophomonas maltophilia", "details": "colistin without potentiator", "method": "as §1, §2, §3, §4"}, "S. maltophilia 257": {"tested_on": "S. maltophilia 257", "assay": "Colistin broth microdilution MIC with potentiator compounds, resistant clinical isolates (Example 3)", "format": "cell-based, Stenotrophomonas maltophilia", "details": "colistin without potentiator", "method": "as §1, §2, §3, §4"}, "S. maltophilia M30": {"tested_on": "S. maltophilia M30", "assay": "Colistin broth microdilution MIC with potentiator compounds, resistant clinical isolates (Example 3)", "format": "cell-based, Stenotrophomonas maltophilia", "details": "colistin without potentiator", "method": "as §1, §2, §3, §4"}, "[6]": {"tested_on": "Enterobacter aerogenes ATCC 13048", "assay": "Colistin broth microdilution MIC with potentiator compounds (Example 1)", "format": "cell-based", "details": "E. aerogenes ATCC 13048; colistin without potentiator"}, "[7]": {"tested_on": "Salmonella enterica subsp. enterica ATCC 14028", "assay": "Colistin broth microdilution MIC with potentiator compounds (Example 1)", "format": "cell-based", "details": "S. enterica ATCC 14028; colistin without potentiator"}, "[8]": {"tested_on": "Acinetobacter baumannii ATCC 15308", "assay": "Colistin broth microdilution MIC with potentiator compounds (Example 1)", "format": "cell-based", "details": "A. baumannii ATCC 15308; colistin without potentiator"}}}
{"substance": "colistin [reference compound]", "values": [{"measurement": "Colistin MIC", "setting": "[1]", "result": 0.5, "unit": "µg/mL"}, {"measurement": "Colistin MIC", "setting": "[2]", "result": 8, "unit": "µg/mL"}, {"measurement": "Colistin MIC", "setting": "[3]", "result": 1, "unit": "µg/mL"}, {"measurement": "Colistin MIC", "setting": "A. baumannii 6799", "result": 0.125, "unit": "µg/mL"}, {"measurement": "Colistin MIC", "setting": "A. baumannii 6963", "result": 0.125, "unit": "µg/mL"}, {"measurement": "Colistin MIC", "setting": "[4]", "result": 1, "unit": "µg/mL"}, {"measurement": "MIC to colistin", "setting": "S. maltophilia K279a", "result": "S. maltophilia K279a (16 µg/mL)"}, {"measurement": "MIC to colistin", "setting": "S. maltophilia OC323", "result": "S. maltophilia OC323 (32 µg/mL)"}, {"measurement": "Colistin MIC", "setting": "[5]", "result": 0.5, "unit": "µg/mL"}, {"measurement": "Colistin MIC", "setting": "S. maltophilia 197", "result": 32, "unit": "µg/mL"}, {"measurement": "Colistin MIC", "setting": "S. maltophilia 53149", "result": 32, "unit": "µg/mL"}, {"measurement": "Colistin MIC", "setting": "S. maltophilia D457", "result": 32, "unit": "µg/mL"}, {"measurement": "Colistin MIC", "setting": "S. maltophilia 257", "result": 64, "unit": "µg/mL"}, {"measurement": "Colistin MIC", "setting": "S. maltophilia M30", "result": 32, "unit": "µg/mL"}, {"measurement": "Colistin MIC", "setting": "[6]", "result": 1, "unit": "µg/mL"}, {"measurement": "Colistin MIC", "setting": "[7]", "result": 2, "unit": "µg/mL"}, {"measurement": "Colistin MIC", "setting": "[8]", "result": 0.5, "unit": "µg/mL"}]}
